Reference: paper PMC9324199 (Angewandte Chemie (International Ed. in English), 2022)

Biological target: 5-HT2A (Homo sapiens, UniProt P28223)
Assay: PDSP radioligand binding

5-HT2A, sequence (P28223 whole entry, species assumed): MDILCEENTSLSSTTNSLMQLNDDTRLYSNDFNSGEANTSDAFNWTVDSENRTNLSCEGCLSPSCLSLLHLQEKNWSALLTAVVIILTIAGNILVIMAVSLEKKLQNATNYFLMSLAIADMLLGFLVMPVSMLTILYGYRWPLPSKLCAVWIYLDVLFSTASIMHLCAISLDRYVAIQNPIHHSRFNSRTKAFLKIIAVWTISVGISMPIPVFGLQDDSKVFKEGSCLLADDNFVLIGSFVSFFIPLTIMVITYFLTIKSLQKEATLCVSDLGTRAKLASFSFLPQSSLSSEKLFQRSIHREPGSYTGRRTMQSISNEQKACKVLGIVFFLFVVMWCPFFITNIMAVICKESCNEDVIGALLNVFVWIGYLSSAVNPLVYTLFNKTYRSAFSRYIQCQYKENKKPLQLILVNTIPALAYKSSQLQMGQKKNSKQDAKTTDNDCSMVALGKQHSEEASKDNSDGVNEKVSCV

COc1ccc(N=Nc2ccc3[nH]cc(CCN(C)C)c3c2)cc1 [2h]
Ki: 225 nM
